{"source": "paper doi:10.1101/2023.02.25.529946", "about": "“Development of Cell Permeable NanoBRET Probes for the Measurement of PLK1 Target Engagement in Live Cells” (bioRxiv, 2023)", "target": "T1, PLK1 (Homo sapiens, UniProt P53350)", "T1 construct": "full-length PLK1, N-terminal NLuc fusion (NLuc-PLK1)", "T1 sequence (P53350 whole entry, the tested form may be a part)": "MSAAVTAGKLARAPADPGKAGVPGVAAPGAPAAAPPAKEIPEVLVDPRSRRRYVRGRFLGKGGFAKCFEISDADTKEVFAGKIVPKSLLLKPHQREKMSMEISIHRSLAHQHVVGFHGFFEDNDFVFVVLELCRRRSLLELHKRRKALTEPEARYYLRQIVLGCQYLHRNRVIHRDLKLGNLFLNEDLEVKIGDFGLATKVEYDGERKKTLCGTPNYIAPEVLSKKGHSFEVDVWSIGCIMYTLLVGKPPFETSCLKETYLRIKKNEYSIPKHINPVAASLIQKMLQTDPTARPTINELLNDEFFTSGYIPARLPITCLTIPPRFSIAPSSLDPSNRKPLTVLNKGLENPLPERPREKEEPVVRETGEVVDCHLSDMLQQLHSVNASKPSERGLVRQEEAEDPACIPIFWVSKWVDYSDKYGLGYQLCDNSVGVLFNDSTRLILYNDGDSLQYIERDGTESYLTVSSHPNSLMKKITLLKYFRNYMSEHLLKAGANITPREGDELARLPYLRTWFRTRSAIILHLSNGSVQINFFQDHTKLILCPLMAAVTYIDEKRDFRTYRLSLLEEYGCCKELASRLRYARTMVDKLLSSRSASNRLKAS", "assay": "live-cell NanoBRET probe titration with and without excess compound […]", "type": "cell-based"}
{"smiles": "CC[C@@H]1C(=O)N(C)c2cnc(Nc3ccc(C(=O)NC4CCN(C(=O)CCOCCOCCOCCOCCNC(=O)CCc5ccc6n5[B-](F)(F)[N+]5=C(c7ccc[nH]7)C=CC5=C6)CC4)cc3OC)nc2N1C(C)C", "note": "[compound 11, (R)-N-(1-(1-(5,5-difluoro-7-(1H-pyrrol-2-yl)-5H-5^λ,6^λ-dipyrrolo[1,2-c:2',1'-f][1,3,2]diazaborinin-3-yl)-3-oxo-7,10,13,16-tetraoxa-4-azanonadecan-19-oyl)piperidin-4-yl)-4-((7-ethyl-8-isopropyl-5-methyl-6-oxo-5,6,7,8-tetrahydropteridin-2-yl)amino)-3-methoxybenzamide]", "values": [{"measurement": "EC50", "result": 300, "unit": "nM"}]}
